Source: patent US4880820A, “Guanine derivatives” (Merck & Co., Inc., priority 1988, dated 1989)
Converted amounts (≈) assume the structure as drawn.

Tests used:
[1] = test system: Herpes simplex virus type 1 (HSV-1), strain Schooler; experiment: Oral treatment of intraperitoneal HSV-1 infection of mice (Example 16); format: in vivo, ICR/Ha mice
Procedure: (§1) Twenty gram ICR/Ha mice were injected intraperitoneally (i.p.) with 0.5 ml of a 10^-5 dilution of a stock preparation of Herpes simplex virus type 1 (HSV-1), strain Schooler. This virus challenge infected each animal with approximately 50 to 100 LD50 s. Starting immediately after virus infection and continuing twice daily for 7 days, each animal was treated by oral gavage in groups of 10 with: 250 μg, 125 μg, 8 μg or 2 μg of (S)-9-(2,3-dihydroxy-1-propoxymethyl)guanine; 500 μg, 125 μg, 31 μg, 8 μg or 2 μg of racemic 9-(2,3-dihydroxy-1-propoxymethyl)guanine; or placebo (physiological saline, pH 11.5). All compounds were solubilized in physiological saline, pH 11.5. The mice were observed daily for 15 days at the same time each day and the day of death was recorded for each animal.
(§2) The statistical analyses were carried out as described in Example 15.

[2] = test system: Herpes simplex virus Type 2 (Curtis); experiment: Method 1: inhibition of viral induced cytopathology in primary rabbit kidney cell cultures, HSV-2; format: cell-based; details: Human alphaherpesvirus 2; HSV-2 (Curtis), primary rabbit kidney cells; total suppression of cytopathology in 50% of cultures; read-out: Minimum Effective Concentration
Procedure: (§3) Method 1: Confluent monolayers of primary rabbit kidney cell cultures were refed with maintenance medium containing serial dilutions of the test compounds and incubated overnight at 37° C. At each dilution, four cultures were challenged with approximately 10 TCID50 HSV-1, four cultures were challenged with approximately 10 TCID50 HSV-2,and two cultures were left as toxicity controls. Cultures were reincubated at 37° C. and observed for viral induced cytopathology at days 5 and 7. Minimum Effective Concentration (μg/ml) is defined as the concentration of antiviral compound required to totally suppress the development of viral cytopathology in 50% of the infected rabbit kidney cell cultures.

[3] = test system: Herpes simplex virus Type 1 (Schooler); experiment: Method 2: virus plaque reduction in MRC-5 cells, HSV-1; format: cell-based; details: Human alphaherpesvirus 1, MRC5, 72 h; HSV-1 (Schooler), MRC-5 cells, 3 days; 50% reduction of plaque development; read-out: ED50 (the source's name)
Procedure: Method 2: Confluent monolayers of MRC-5 cells were incubated for one hour at 37° C. with 50-100 plaque forming units of the indicated virus. Following incubation, the cell monolayers were refed with maintenance medium containing 2% methyl cellulose and the chemical agent indicated. Duplicate cultures were incubated with each concentration of the chemical agent tested. Following further incubation for 3 days at 37° C., the monolayers were stained and the developed virus plaques were counted. The concentration (μg/ml) of each chemical agent which reduced plaque development by 50% (ED50) was determined.

[4] = test system: Herpes simplex virus type 1 (HSV-1), strain Schooler; experiment: Parenteral (subcutaneous) treatment of Herpes simplex virus type 1 infection in mice; format: in vivo, ICR/Ha mice; details: s.c.
Procedure: as §1, with “(ip)” for “(i.p.)”, “LD50.” for “LD50 s.”, “4” for “7”, “injected subcutaneously” for “treated by oral gavage”, “with:” for “with: 250 μg, 125 μg, 8 μg or 2 μg of (S)-9-(2,3-dihydroxy-1-propoxymethyl)guanine; 500 μg,”, “compounds A, B or C;” for “racemic 9-(2,3-dihydroxy-1-propoxymethyl)guanine;”
Statistical analyses [reference: Liddel, F.D.K., Evaluation of Survival in Challenge Experiments, Microbiol. Rev., 42, 237 (1978)]were performed on survival times transformed by the negative exponential transformation:
t=number of days an animal survived
T=duration of trial (15 days)
A continuity correction was used to account for daily observation:
Within each group, mice surviving through the trial period were assigned equally values of 0.9 and 1.0 to adjust for termination of the trial.
Average survival time per group was calculated from average corrected transformed survival times [fc (t)] as follows:
t avg=[T/log(0.1).[log(1-fc (t)]

[5] = test system: Herpes simplex virus Type 1 (Schooler); experiment: Method 1: inhibition of viral induced cytopathology in primary rabbit kidney cell cultures, HSV-1; format: cell-based; details: Human alphaherpesvirus 1; HSV-1 (Schooler), primary rabbit kidney cells; total suppression of cytopathology in 50% of cultures; read-out: Minimum Effective Concentration
Procedure: as §3

[6] = test system: Herpes simplex virus type 1 (HSV-1), strain Schooler; experiment: Parenteral (subcutaneous) treatment of Herpes simplex virus type 1 infection in mice; format: in vivo, ICR/Ha mice; details: tested not at the same time as A, B, C; for Percent Survival: at 15 days
[7] = test system: Herpes simplex virus type 1 (HSV-1), strain Schooler; experiment: Oral treatment of intraperitoneal HSV-1 infection of mice (Example 17); format: in vivo, ICR/Ha mice; details: for Percent Survival: at 15 days
Procedure: Twenty gram ICR/Ha mice were injected intraperitoneally (i.p.) with 0.5 ml of a 10^-5 dilution of a stock preparation of Herpes Simplex virus type 1 (HSV-1), strain Schooler. This virus challenge infected mice with approximately 50 to 100 LD50. Starting immediately after virus infection and continuing twice daily for 7 days, each animal was treated by oral gavage in groups of 10 with: 500 μg, 125 μg, 31 μg or 8 μg of (S)-9-(2,3-dihydroxy-1propoxymethyl)guanine; 500 μg, 125 μg, 31 μg or 8 μg of acyclovir or placebo (physiological saline, pH 11.5). All compounds were solubilized in physiological saline, pH 11.5.
as §2

[8] = 31 μg/dose twice daily for 7 days, 3.1 mg/kg/day, ^3 (all): not statistically different from placebo
[9] = 31 μg/dose twice daily for 7 days, 3.1 mg/kg/day, at 15 days (acyclovir not at the same time)
[10] = 125 μg/dose twice daily for 7 days, 12.5 mg/kg/day, ^3 (racemate, acyclovir): not statistically different from placebo
[11] = 125 μg/dose twice daily for 7 days, 12.5 mg/kg/day, at 15 days (acyclovir not at the same time)
[12] = 500 μg/dose twice daily for 7 days, 50 mg/kg/day (acyclovir not at the same time)
[13] = 500 μg/dose twice daily for 7 days, 50 mg/kg/day, at 15 days (acyclovir not at the same time)
[14] = 2 μg/dose twice daily for 4 days, 0.2 mg/kg/day, ^3 (all): not statistically different from placebo
[15] = 2 μg/dose twice daily for 4 days, 0.2 mg/kg/day, at 15 days
[16] = 8 μg/dose twice daily for 4 days, 0.8 mg/kg/day, ^3 (all): not statistically different from placebo
[17] = 8 μg/dose twice daily for 4 days, 0.8 mg/kg/day, at 15 days
[18] = 31 μg/dose twice daily for 4 days, 3.1 mg/kg/day, ^3 (all): not statistically different from placebo
[19] = 31 μg/dose twice daily for 4 days, 3.1 mg/kg/day, at 15 days
[20] = 125 μg/dose twice daily for 4 days, 12.5 mg/kg/day, ^3 (B, acyclovir): not statistically different from placebo
[21] = 125 μg/dose twice daily for 4 days, 12.5 mg/kg/day, at 15 days (acyclovir not at the same time)
[22] = 125 μg/dose twice daily for 7 days, 12.5 mg/kg/day
[23] = 500 μg/dose twice daily for 7 days, 50 mg/kg/day

SMILES	Avg. Survival Time [1, 8] [days]	Percent Survival [1, 9] [%]	Avg. Survival Time [1, 10] [days]	Percent Survival [1, 11] [%]	Avg. Survival Time [1, 12] [days]	Percent Survival [1, 13] [%]	minimal effective concentration [2] [µg/mL]	EC50 [3] [µg/mL]	Avg. Survival Time [4, 14] [days]	Percent Survival [4, 15] [%]	Avg. Survival Time [4, 16] [days]	Percent Survival [4, 17] [%]	Avg. Survival Time [4, 18] [days]	Percent Survival [4, 19] [%]	Avg. Survival Time [4, 20] [days]	Percent Survival [4, 21] [%]	minimal effective concentration [5] [µg/mL]	further results
Nc1nc2c(ncn2COCC(O)CO)c(=O)[nH]1 (racemic) [C, Racemic 9-(2,3-dihydroxy-1-propoxymethyl)guanine]	7.6	0	8.4	10	10.7	20	6 to 12	1 (≈ 3.92 µM)	6.7	10	6.6	0	7.2	0	8.6	20	3.1 to 6	Avg. Survival Time ([1]; 2 μg/dose twice daily for 7 days, 0.2 mg/kg/day, ^3 (all): not statistically different from placebo): 6.9 days; Percent Survival ([1]; 2 μg/dose twice daily for 7 days, 0.2 mg/kg/day, at 15 days): 0%; Avg. Survival Time ([1]; 8 μg/dose twice daily for 7 days, 0.8 mg/kg/day, ^3 (all): not statistically different from placebo): 6.8 days; Percent Survival ([1]; 8 μg/dose twice daily for 7 days, 0.8 mg/kg/day, at 15 days): 0%; protection over placebo-treated animals, as measured by average survival time ([1]; 50 mg/kg/day): conferred significant protection over placebo-treated animals
Nc1nc2c(ncn2COCCO)c(=O)[nH]1 [Acyclovir, 9-(2-hydroxyethoxymethyl)guanine]	6.3	0	6.6	0	8.2	20									7.0	6		Percent Survival ([1]; 1000 μg/dose, 100 mg/kg/day, at 15 days, tested not at the same time): 60%; Avg. Survival Time ([1]; 1000 μg/dose, 100 mg/kg/day, tested not at the same time): 11.4 days; Percent Survival ([6]; 500 μg/dose, 50 mg/kg/day): 0%; Avg. Survival Time ([6]; 500 μg/dose, 50 mg/kg/day): 7.8 days; Percent Survival ([6]; 1000 μg/dose, 100 mg/kg/day): 10%; Avg. Survival Time ([6]; 1000 μg/dose, 100 mg/kg/day): 7.8 days; Avg. Survival Time ([7]; 8 μg/dose twice daily for 7 days, 0.8 mg/kg/day, ^b (all): not statistically different from placebo): 6.1 days; Percent Survival ([7]; 8 μg/dose twice daily for 7 days, 0.8 mg/kg/day): 0%; Avg. Survival Time ([7]; 31 μg/dose twice daily for 7 days, 3.1 mg/kg/day, ^b (all): not statistically different from placebo): 6.5 days; Percent Survival ([7]; 31 μg/dose twice daily for 7 days, 3.1 mg/kg/day): 0%; Avg. Survival Time [7, 22]: 7.6 days; Percent Survival [7, 22]: 10%; Avg. Survival Time [7, 23]: 8.7 days; Percent Survival [7, 23]: 20%; protection over placebo-treated animals, as measured by average survival time ([7]; 12.5 mg/kg/day): conferred significant protection over placebo-treated animals; protection over placebo-treated animals, as measured by average survival time ([7]; 50 mg/kg/day): conferred significant protection over placebo-treated animals
Nc1nc2c(ncn2COC[C@H](O)CO)c(=O)[nH]1 [B, (R)-9-(2,3-dihydroxy-1-propoxymethyl)guanine]							25 to 50	6.2 (≈ 24.3 µM)	6.0	0	6.3	0	6.5	10	7.5	10	25	
